Measured values: publication PMC5218480 (PLoS ONE, 2017)

Tested on: MV-4-11 cells
Experiment: Gene expression microarray analysis (Affymetrix PrimeView) and GSEA
Type: cell-based, human
Design: RFU PODN (11730768_x_at) / Fold change /veh PODN (11730768_x_at) / RFU LINC00158 (11744669_a_at) / Fold change /veh LINC00158 (11744669_a_at) / RFU DUSP10 (11751237_a_at) / Fold change /veh DUSP10 (11751237_a_at) / RFU ID3 (11757404_x_at) / Fold change /veh ID3 (11757404_x_at) / RFU PLEKHG5 (11737974_s_at) / Fold change /veh PLEKHG5 (11737974_s_at) / RFU LRRC4B (11730491_at) / Fold change /veh LRRC4B (11730491_at) / RFU GIMAP4 (11747438_a_at) / Fold change /veh GIMAP4 (11747438_a_at) / RFU KRT8 (11758183_x_at) / Fold change /veh KRT8 (11758183_x_at) / RFU CNN1 (11734310_a_at) / Fold change /veh CNN1 (11734310_a_at) / RFU VPS37D (11726825_at) / Fold change /veh VPS37D (11726825_at) / RFU C10orf10 (11716522_x_at) / Fold change /veh C10orf10 (11716522_x_at) / RFU KIR2DL2 /// KIR2DL4 /// KIR2DL5A /// KIR2DL5B /// KIR2DS1 /// KIR2DS2 /// KIR2DS3 /// KIR2DS4 /// KIR3DL3 /// KIR3DL3 /// KIR3DS1 (11738374_at) / Fold change /veh KIR2DL2 /// KIR2DL4 /// KIR2DL5A /// KIR2DL5B /// KIR2DS1 /// KIR2DS2 /// KIR2DS3 /// KIR2DS4 /// KIR3DL3 /// KIR3DL3 /// KIR3DS1 (11738374_at) / RFU C1QL1 (11718748_at) / Fold change /veh C1QL1 (11718748_at) / RFU TMPRSS4 (11747572_a_at) / Fold change /veh TMPRSS4 (11747572_a_at) / RFU HAMP (11756126_x_at) / Fold change /veh HAMP (11756126_x_at) / RFU RNFT2 (11725882_a_at) / Fold change /veh RNFT2 (11725882_a_at) / RFU NR4A2 (11747474_a_at) / Fold change /veh NR4A2 (11747474_a_at) / RFU ABCC12 (11746883_a_at) / Fold change /veh ABCC12 (11746883_a_at) / RFU TMEM136 (11760407_x_at) / Fold change /veh TMEM136 (11760407_x_at) / RFU CLDN22 /// WWC2 (11732394_at) / Fold change /veh CLDN22 /// WWC2 (11732394_at) / RFU HLA-DPB1 (11760878_x_at) / Fold change /veh HLA-DPB1 (11760878_x_at) / RFU SPINT1 (11716480_a_at) / Fold change /veh SPINT1 (11716480_a_at) / RFU GAP43 (11754022_s_at) / Fold change /veh GAP43 (11754022_s_at) / RFU A4GNT (11735810_at) / Fold change /veh A4GNT (11735810_at) / RFU PRB3 (11715151_x_at) / Fold change /veh PRB3 (11715151_x_at) / RFU TUBB4B (11761932_at) / Fold change /veh TUBB4B (11761932_at) / RFU CAPN14 (11732068_a_at) / Fold change /veh CAPN14 (11732068_a_at) / RFU TMCC2 (11721928_a_at) / Fold change /veh TMCC2 (11721928_a_at) / RFU IRGQ (11745062_a_at) / Fold change /veh IRGQ (11745062_a_at) / RFU FAM174B (11720279_a_at) / Fold change /veh FAM174B (11720279_a_at) / RFU TMPRSS4 (11748680_a_at) / Fold change /veh TMPRSS4 (11748680_a_at) / RFU FAM212B (11763350_a_at) / Fold change /veh FAM212B (11763350_a_at) / RFU PLEKHG5 (11743358_a_at) / Fold change /veh PLEKHG5 (11743358_a_at) / RFU ZSCAN30 (11745921_a_at) / Fold change /veh ZSCAN30 (11745921_a_at) / RFU CMKLR1 (11741424_a_at) / Fold change /veh CMKLR1 (11741424_a_at) / RFU LOC101060620 /// MAPK8IP1 (11723275_at) / Fold change /veh LOC101060620 /// MAPK8IP1 (11723275_at) / RFU SPTSSB (11747773_x_at) / Fold change /veh SPTSSB (11747773_x_at) / RFU PRSS12 (11739890_at) / Fold change /veh PRSS12 (11739890_at) / RFU BIN1 (11741810_x_at) / Fold change /veh BIN1 (11741810_x_at) / RFU WNT11 (11732464_a_at) / Fold change /veh WNT11 (11732464_a_at) / RFU C10orf10 (11716521_a_at) / Fold change /veh C10orf10 (11716521_a_at) / RFU C5orf56 (11738089_at) / Fold change /veh C5orf56 (11738089_at) / RFU CYB561 (11721691_x_at) / Fold change /veh CYB561 (11721691_x_at) / RFU ANKRD19P (11752326_a_at) / Fold change /veh ANKRD19P (11752326_a_at) / RFU OR2T12 /// OR2T33 /// OR2T8 (11738714_s_at) / Fold change /veh OR2T12 /// OR2T33 /// OR2T8 (11738714_s_at) / RFU VCAN (11748164_a_at) / Fold change /veh VCAN (11748164_a_at) / RFU JSRP1 (11732532_at) / Fold change /veh JSRP1 (11732532_at) / RFU KRTAP10-11 (11738290_x_at) / Fold change /veh KRTAP10-11 (11738290_x_at) / RFU MYO3A (11730013_a_at) / Fold change /veh MYO3A (11730013_a_at) / RFU EBF3 (11725865_a_at) / Fold change /veh EBF3 (11725865_a_at) / RFU CAMK2N1 (11719241_x_at) / Fold change /veh CAMK2N1 (11719241_x_at) / RFU C5orf56 (11738088_a_at) / Fold change /veh C5orf56 (11738088_a_at) / RFU OLFML3 (11715873_a_at) / Fold change /veh OLFML3 (11715873_a_at) / RFU LOC100653217 /// NTM (11731650_a_at) / Fold change /veh LOC100653217 /// NTM (11731650_a_at) / RFU MAPK11 (11762145_a_at) / Fold change /veh MAPK11 (11762145_a_at) / RFU FIZ1 (11724087_x_at) / Fold change /veh FIZ1 (11724087_x_at) / RFU OASL (11726364_x_at) / Fold change /veh OASL (11726364_x_at) / RFU SOX15 (11748057_x_at) / Fold change /veh SOX15 (11748057_x_at) / RFU CD79A (11719716_a_at) / Fold change /veh CD79A (11719716_a_at) / RFU HIST1H1D (11736915_at) / Fold change /veh HIST1H1D (11736915_at) / RFU CASKIN2 (11723855_a_at) / Fold change /veh CASKIN2 (11723855_a_at) / RFU LOC730098 (11760151_x_at) / Fold change /veh LOC730098 (11760151_x_at) / RFU OR4N2 (11742367_at) / Fold change /veh OR4N2 (11742367_at) / RFU PRRT2 (11749266_a_at) / Fold change /veh PRRT2 (11749266_a_at) / RFU SNX32 (11753110_a_at) / Fold change /veh SNX32 (11753110_a_at) / RFU CDHR5 (11726645_a_at) / Fold change /veh CDHR5 (11726645_a_at) / RFU RCAN1 (11760418_a_at) / Fold change /veh RCAN1 (11760418_a_at) / RFU FAM167A (11723789_a_at) / Fold change /veh FAM167A (11723789_a_at) / RFU FAM26E (11764081_at) / Fold change /veh FAM26E (11764081_at) / RFU ISYNA1 (11749810_s_at) / Fold change /veh ISYNA1 (11749810_s_at) / RFU ACY1 (11761880_at) / Fold change /veh ACY1 (11761880_at) / RFU 11764098_at / Fold change /veh 11764098_at / RFU SAMD14 (11745864_x_at) / Fold change /veh SAMD14 (11745864_x_at) / RFU NPB (11741838_a_at) / Fold change /veh NPB (11741838_a_at) / RFU TMPRSS6 (11731388_a_at) / Fold change /veh TMPRSS6 (11731388_a_at) / RFU KRTAP10-2 (11738614_at) / Fold change /veh KRTAP10-2 (11738614_at) / RFU ARHGAP8 /// PRR5-ARHGAP8 (11727945_x_at) / Fold change /veh ARHGAP8 /// PRR5-ARHGAP8 (11727945_x_at) / RFU KRTAP5-7 /// NADSYN1 (11734609_at) / Fold change /veh KRTAP5-7 /// NADSYN1 (11734609_at) / RFU RASL12 (11751679_a_at) / Fold change /veh RASL12 (11751679_a_at) / RFU CDKN2B (11736163_a_at) / Fold change /veh CDKN2B (11736163_a_at) / RFU PRF1 (11729649_at) / Fold change /veh PRF1 (11729649_at) / RFU, ZNF638 /// ZNF638-IT1 / Fold change vs veh, ZNF638 /// ZNF638-IT1 / RFU, PANK3 / Fold change vs veh, PANK3 / RFU, SH3YL1 / Fold change vs veh, SH3YL1 / RFU, ZEB2 / Fold change vs veh, ZEB2 / RFU, NRIP1 / Fold change vs veh, NRIP1 / RFU, PTTG1IP / Fold change vs veh, PTTG1IP / RFU, CAPN2 / Fold change vs veh, CAPN2 / RFU, MED14 / Fold change vs veh, MED14 / RFU, SNORA58 / Fold change vs veh, SNORA58 / RFU, C1orf63 / Fold change vs veh, C1orf63 / RFU, LRRFIP1 / Fold change vs veh, LRRFIP1 / RFU, NDUFAF7 / Fold change vs veh, NDUFAF7 / RFU, SLC12A2 / Fold change vs veh, SLC12A2 / RFU, IBTK / Fold change vs veh, IBTK / RFU, ESF1 / Fold change vs veh, ESF1 / Fold change vs veh, TMEM50B / RFU, TAOK1 / Fold change vs veh, TAOK1 / RFU, ACBD3 / Fold change vs veh, ACBD3 / RFU, TMA16 / Fold change vs veh, TMA16 / RFU, RWDD3 / Fold change vs veh, RWDD3 / RFU, BCAT1 / Fold change vs veh, BCAT1 / RFU, EDEM3 / Fold change vs veh, EDEM3 / RFU, TMEM33 / Fold change vs veh, TMEM33 / RFU, WDR75 / Fold change vs veh, WDR75 / RFU, AHCTF1 / Fold change vs veh, AHCTF1 / RFU, TFRC / Fold change vs veh, TFRC / RFU, ZDHHC17 / Fold change vs veh, ZDHHC17 / RFU, NOM1 / Fold change vs veh, NOM1 / RFU, ARL8B / Fold change vs veh, ARL8B / RFU, ZBTB11 / Fold change vs veh, ZBTB11 / RFU, TAMM41 / Fold change vs veh, TAMM41 / RFU, KIAA1704 /// LOC100996395 / Fold change vs veh, KIAA1704 /// LOC100996395 / RFU, ING1 / Fold change vs veh, ING1 / RFU, TRMT61B / Fold change vs veh, TRMT61B / RFU, FUBP3 / Fold change vs veh, FUBP3 / RFU, TP53 / Fold change vs veh, TP53 / RFU, TNKS2 / Fold change vs veh, TNKS2 / RFU, ZFP14 / Fold change vs veh, ZFP14 / RFU, ACTR2 / Fold change vs veh, ACTR2 / RFU, PPP3R1 / Fold change vs veh, PPP3R1 / RFU, PIK3R1 / Fold change vs veh, PIK3R1 / RFU, HNRNPA1 / Fold change vs veh, HNRNPA1 / RFU, RNF170 / Fold change vs veh, RNF170 / RFU, ZNF28 / Fold change vs veh, ZNF28 / RFU, RNGTT / Fold change vs veh, RNGTT / RFU, OGT / Fold change vs veh, OGT / RFU, BRD1 / Fold change vs veh, BRD1 / RFU, MARS / Fold change vs veh, MARS / RFU, ZNF655 / Fold change vs veh, ZNF655 / RFU, FAHD1 / Fold change vs veh, FAHD1 / RFU, BDP1 / Fold change vs veh, BDP1 / RFU, LRRCC1 / Fold change vs veh, LRRCC1 / RFU, ARID1A / Fold change vs veh, ARID1A / RFU, ZNF146 / Fold change vs veh, ZNF146 / RFU, ZNF330 / Fold change vs veh, ZNF330 / RFU, GPN3 / Fold change vs veh, GPN3 / RFU, C9orf123 / Fold change vs veh, C9orf123 / RFU, N4BP2L2 / Fold change vs veh, N4BP2L2 / RFU, ARFIP1 / Fold change vs veh, ARFIP1 / RFU, FAM179B / Fold change vs veh, FAM179B / RFU, BCL10 / Fold change vs veh, BCL10 / RFU, UHRF1BP1L / Fold change vs veh, UHRF1BP1L / RFU, BET1 / Fold change vs veh, BET1 / RFU, CNOT2 / Fold change vs veh, CNOT2 / RFU, ZNF268 / Fold change vs veh, ZNF268 / Fold change vs veh, ZNF507 / RFU, DGCR2 / Fold change vs veh, DGCR2 / RFU, WDSUB1 / Fold change vs veh, WDSUB1 / Fold change vs veh, HSP90B1 /// MIR3652 / RFU, ADSS / Fold change vs veh, ADSS / RFU, GK / Fold change vs veh, GK / RFU, ZNF148 / Fold change vs veh, ZNF148 / RFU, TAF9 / Fold change vs veh, TAF9 / RFU, SLC1A5 / Fold change vs veh, SLC1A5 / RFU, SLMO2 / Fold change vs veh, SLMO2 / RFU, ABCC4 / Fold change vs veh, ABCC4 / RFU, LOC101060439 /// RAP1B / Fold change vs veh, LOC101060439 /// RAP1B / RFU, RFX7 / Fold change vs veh, RFX7 / RFU, GTPBP10 / Fold change vs veh, GTPBP10 / RFU, CNEP1R1 / Fold change vs veh, CNEP1R1 / RFU, BIVM-ERCC5 /// ERCC5 / Fold change vs veh, BIVM-ERCC5 /// ERCC5 / RFU, ILF3 / Fold change vs veh, ILF3 / RFU 11762660_at / Fold change /veh 11762660_at / RFU VCAN (11757783_s_at) / Fold change /veh VCAN (11757783_s_at) / RFU DDX43 (11728927_at) / Fold change /veh DDX43 (11728927_at) / RFU KRT8 (11758188_x_at) / Fold change /veh KRT8 (11758188_x_at) / RFU NKD1 (11759106_at) / Fold change /veh NKD1 (11759106_at) / RFU SRD5A1 (11742802_a_at) / Fold change /veh SRD5A1 (11742802_a_at) / RFU TPSAB1 /// TPSB2 (11721975_s_at) / Fold change /veh TPSAB1 /// TPSB2 (11721975_s_at) / RFU GSTM3 (11746129_a_at) / Fold change /veh GSTM3 (11746129_a_at) / RFU IL23R (11737362_x_at) / Fold change /veh IL23R (11737362_x_at) / RFU TMEM51 (11727254_a_at) / Fold change /veh TMEM51 (11727254_a_at) / RFU PIWIL2 (11732686_x_at) / Fold change /veh PIWIL2 (11732686_x_at) / RFU ORM1 (11744905_x_at) / Fold change /veh ORM1 (11744905_x_at) / RFU CCDC152 (11743942_at) / Fold change /veh CCDC152 (11743942_at) / RFU ECM1 (11717891_a_at) / Fold change /veh ECM1 (11717891_a_at) / RFU IL23R (11748794_a_at) / Fold change /veh IL23R (11748794_a_at) / RFU TNFAIP8L3 (11732012_x_at) / Fold change /veh TNFAIP8L3 (11732012_x_at) / RFU MBOAT4 (11741988_at) / Fold change /veh MBOAT4 (11741988_at) / RFU 11764193_at / Fold change /veh 11764193_at / RFU TMEM53 (11763286_at) / Fold change /veh TMEM53 (11763286_at) / RFU MAGEB2 (11727129_at) / Fold change /veh MAGEB2 (11727129_at) / RFU TMEM200A (11744735_a_at) / Fold change /veh TMEM200A (11744735_a_at) / RFU CCDC152 (11751479_a_at) / Fold change /veh CCDC152 (11751479_a_at) / RFU FAM211A (11726209_a_at) / Fold change /veh FAM211A (11726209_a_at) / RFU RGS16 (11746705_a_at) / Fold change /veh RGS16 (11746705_a_at) / RFU VCAN (11755009_s_at) / Fold change /veh VCAN (11755009_s_at) / RFU RHOB (11743442_s_at) / Fold change /veh RHOB (11743442_s_at) / RFU RGS16 (11720943_a_at) / Fold change /veh RGS16 (11720943_a_at) / RFU RGS16 (11720944_at) / Fold change /veh RGS16 (11720944_at) / RFU, VPS4B / Fold change vs veh, VPS4B / RFU, CREB1 / Fold change vs veh, CREB1 / RFU, DNAJC13 / Fold change vs veh, DNAJC13 / RFU, GNAQ / Fold change vs veh, GNAQ / RFU, CDK5R1 / Fold change vs veh, CDK5R1 / RFU, ZRANB3 / Fold change vs veh, ZRANB3 / RFU, CUL4A / Fold change vs veh, CUL4A / RFU, CCNY / Fold change vs veh, CCNY / RFU, UFL1 / Fold change vs veh, UFL1 / RFU, COG3 / Fold change vs veh, COG3 / RFU, DIAPH2 / Fold change vs veh, DIAPH2 / RFU, SKA2 / Fold change vs veh, SKA2 / RFU, AFF3 / Fold change vs veh, AFF3 / RFU, LMF1 / Fold change vs veh, LMF1 / RFU, IPO11 / Fold change vs veh, IPO11 / RFU, DFFB / Fold change vs veh, DFFB / RFU, FOXP1 / Fold change vs veh, FOXP1 / RFU, CARD8 / Fold change vs veh, CARD8 / RFU, STRN3 / Fold change vs veh, STRN3 / RFU, ADK / Fold change vs veh, ADK / RFU, RASSF2 / Fold change vs veh, RASSF2 / RFU, WIPF1 / Fold change vs veh, WIPF1 / RFU, LARP1B / Fold change vs veh, LARP1B / RFU, RASA1 / Fold change vs veh, RASA1 / RFU, RB1 / Fold change vs veh, RB1 / RFU, PPFIA1 / Fold change vs veh, PPFIA1 / RFU, MAT2A / Fold change vs veh, MAT2A / RFU, CCT5 / Fold change vs veh, CCT5 / RFU, WDR92 / Fold change vs veh, WDR92 / RFU, CUX1 / Fold change vs veh, CUX1 / RFU, TTC7A / Fold change vs veh, TTC7A / RFU, TMEM135 / Fold change vs veh, TMEM135 / RFU, DEPTOR / Fold change vs veh, DEPTOR / RFU, CPM / Fold change vs veh, CPM / RFU, DNAJB6 / Fold change vs veh, DNAJB6 / RFU, CACNA2D3 / Fold change vs veh, CACNA2D3 / RFU, DTX4 / Fold change vs veh, DTX4 / RFU, TFCP2 / Fold change vs veh, TFCP2 / RFU, GMCL1 /// GMCL1P1 / Fold change vs veh, GMCL1 /// GMCL1P1 / RFU, AEBP2 / Fold change vs veh, AEBP2 / RFU, SNHG1 /// SNORD22 /// SNORD25 /// SNORD26 /// SNORD27 /// SNORD28 /// SNORD29 /// SNORD31 / Fold change vs veh, SNHG1 /// SNORD22 /// SNORD25 /// SNORD26 /// SNORD27 /// SNORD28 /// SNORD29 /// SNORD31 / Fold change (Aza/veh), C12orf56 (ProbeSet 11735607_a_at) / Fold change (ACY-1035/veh), C12orf56 (ProbeSet 11735607_a_at) / Fold change (Aza/veh), FGFR1OP (ProbeSet 11751329_s_at) / Fold change (ACY-1035/veh), FGFR1OP (ProbeSet 11751329_s_at) / Fold change (Aza/veh), VPS36 (ProbeSet 11739960_a_at) / Fold change (ACY-1035/veh), VPS36 (ProbeSet 11739960_a_at) / RFU SYPL1 (11715823_x_at) / Fold change /veh SYPL1 (11715823_x_at) / RFU IGFBP7 (11715501_s_at) / Fold change /veh IGFBP7 (11715501_s_at) / RFU REEP3 (11722064_at) / Fold change /veh REEP3 (11722064_at) / RFU IGLL1 (11728026_x_at) / Fold change /veh IGLL1 (11728026_x_at): dose or concentration left out as unconfirmed
Conditions: MV-4-11 cells, 48 hours

Compound: Nc1ccc(-c2cccs2)cc1NC(=O)c1ccc2c(c1)cc(C1CC1)n2CCN1CCOCC1 [ACY-1035]
- RFU PRSS12 (11739890_at): 8.28 RFU
